Test results: US20210403455A1 (priority 2018, published 2021)

System: rice blast
Format: cell-based
Details: acetone solution at 500 ppm, 1000 μl dropped on oatmeal medium; 8 mm rice blast disc; 25° C. for five days; fungal filament elongation vs acetone-only treatment

COc1nc(-c2ccccn2)nc(F)c1C(F)(F)F [Example 3, 6-fluoro-4-methoxy-2-(2-pyridyl)-5-trifluoromethylpyrimidine]
Preventive value: 80
